The values that follow are results of earlier work, collected in patent US20090047276A1, “METHODS FOR […] OR TISSUE RE[…] A […]” (UNIVERSITY OF WASHINGTON, priority 2007, published 2009).

Bounds are passed on as bounds.

Data set [1] concerns GSK-3. The note with it: literature values (Ring et al. 2003; Cline et al. 2002); read-out: half-maximal effective concentration [EC50].
The subject of data set [2] is GSK-3. The note with it: literature values (Ring et al. 2003; Cline et al. 2002).

Take `O=[N+]([O-])c1ccc(NCCNc2ncc(-c3ncc[nH]3)c(-c3ccc(Cl)cc3Cl)n2)nc1` [CHIR-837]: the EC50 with GSK-3 [1] was 375 nM. Further, the “selectivity for GSK-3” value in the data set with GSK-3 [2] is reported as > 5,000 fold.
Regarding `Cc1c[nH]c(-c2cnc(NCCNc3ccc(C#N)cn3)nc2-c2ccc(Cl)cc2Cl)n1` [CHIR-911], the EC50 in the data set on GSK-3 [1] was […]. In addition, the “selectivity for GSK-3” value with GSK-3 [2] was […].
